Measurements published in US20250255841A1, “METHODS FOR TREATING CYTOKINE STORM ASSOCIATED WITH ACINETOBACTER BAUMANNII INFECTIONS” (City University of Hong Kong, priority 2024, published 2025).

Experiments:
ATCC17978-infected mice = assay: Mouse sepsis infection model with immunosuppressive drug treatment (survival, body weight, spleen weight); assay type: in vivo, C57BL/6 mice; conditions: for survival rate of ATCC17978-infected mice: intraperitoneal drug
Experimental: (§1) The mouse infection model was employed to detect the immune response induced by Ab in vivo. Mice of the same sex were randomly divided into several groups (5 animals per group) and then infected by 7.5×10^7 CFU of Ab test strain by intraperitoneal administration. The body weight of all mice was recorded before infection and at 12 hours post-infection. Survival of the test animals was determined by recording the mortality rate during the 120-hour experiment. At 12 hpi, the mice were sacrificed, and the organs were collected and homogenized for bacterial load measurement and analysis by flow cytometry, RNAseq, scRNAseq and qRT-PCR assay. The serum of the mice was collected for ELISA detection. Animal experiments were conducted at least twice to assess the consistency of the data.
To test the effect of NSAIDs treatment, the mice were administered intraperitoneal injections of 50 mg/kg NPXS and 100 mg/kg ASA 1 h before ATCC 17978 infection; a group of mice that served as control received equivalent volumes of PBS. The survival rate, health status, and weight of the test animals were recorded during the next 120 hours.

[1] = system: CD11b+F4/80+ macrophages in the lungs of Ab-infected mice
Experimental: as §1

[2] = system: serum cytokine production (TNF-α, IL-6 and IL-1b); conditions: Ab-infected mice, ELISA
Experimental: as §1
Blood was collected from the test mice by orbital bleeding and clotted at RT for 1 h. Blood was subsequently subjected to centrifugation at 10,000 g for 25 min at 4° C. Serum was divided into tubes and stored immediately at −80° C. until cytokine analysis.
The enzyme-linked immunosorbent assay (ELISA) was used to perform cytokine analysis in mouse serum and cell supernatants. Mouse serum was extracted as described above. Pre-treated macrophage cell supernatants were harvested and centrifuged to remove impurities. The levels of IL1β, IL6, and TNF-α were measured by using the IL-1 beta, IL-6 and TNF alpha Mouse Uncoated ELISA Kit (Thermo Fisher Scientific) according to the manufacturer's protocols, respectively.

[3] = system: pro-inflammatory, COX and TLR2/Myd88/NF-κB signaling pathway-related genes
Experimental: as §1
Total RNA was extracted from the homogenized lung samples or RAW264.7 cells (ATCC, CA, USA) upon Ab infection, utilizing the TRIzol™ method (Thermo Fisher Scientific, MA, USA). Turbo DNA-free™ Kit (Invitrogen, CA, USA) was employed for removal of DNA contaminants. 1 μg purified mRNA was reverse transcribed into cDNA using SuperScript™ III First-Strand Synthesis SuperMix Kit (Invitrogen), with a 1:10 dilution for subsequent qRT-PCR analysis. The qRT-PCR was then performed on an ABI QuantStudio 7 Flex Real-Time PCR System (Applied Biosystems, CA, USA) by the PowerUP SYBR Green master mix (Applied Biosystems). The target gene transcription levels were quantified by the comparative Ct method and normalized to the expression level of glyceraldehyde-3-phosphate dehydrogenase (GADPH).
Total RNA extracted from lung samples was sequenced by Novogene Technology (Hong Kong SAR, China). Bioanalyzer 2100 system was used to measure RNA integrity (Agilent Technologies, CA, USA); the NEBNextUltra RNA Library Prep Kit (NEB, CA, USA) was employed to construct the cDNA libraries for Illumina sequencing. The index-coded samples clustering was carried out on a cBot Cluster Generation System by the TruSeq PE Cluster Kit v3-cBot-HS (Illumia, CA, Illumia). The libraries were sequenced on the Illumina Novaseq platform with paired-end 150 bp reads. HISAT2 was used for sequencing reads alignment. Fragments per gene were counted based on exon regions with FeatureCounts v.1.6.243. Differential mRNA level analysis was carried on by the DESeq2 R package. Unigenes with P.adjust<0.05 and |Log2Fold Change|>1 could be described as differentially expressed genes. Gene Enrichment Analysis was conducted for gene ontology enrichment analysis.

RAW264.7 cells = assay: Inhibitor treatment in RAW264.7 infected with ATCC 17978, flow cytometry of CD86/CD206; assay type: cell-based, mouse; conditions: RAW264.7 pretreated 1 h, Ab MOI=5 for 6 h; compared to cells not treated with the inhibitors
Experimental: RAW264.7 cells were pre-treated for 1 h with the culture medium, C29 (100 μM)^22, TJ-M2010-5 (20 μM)^23 and JSH-23 (30 μM)^24 (MCE, NJ, USA) respectively, and then stimulated with Ab (MOI=5) for 6 h in the presence of the culture medium, C29, TJ-M2010-5 or JSH-23. Cell supernatants were collected for subsequent cytokine measurement. RAW264.7 cells were incubated with fluorescently labeled antibodies against mouse F4/80, CD206, and CD86 for flow cytometric analysis, following washes three times with PBS and resuspension in PBS containing 2.5% FBS.

[4] = RNA-seq, ATCC 17978-infected mice after NPXS treatment, stated as suppressed

SMILES: CC(=O)Oc1ccccc1C(=O)O [ASA, acetylsalicylic acid]
- survival rate of ATCC17978-infected mice (ATCC17978-infected mice; at 24 h): 60%
- anti-inflammatory potency recorded during Ab infection (ATCC17978-infected mice; comparison with naproxen): inferior to that of naproxen

SMILES: Cn1cnc([N+](=O)[O-])c1Sc1ncnc2nc[nH]c12 [AzA, azathioprine]
- survival rate of ATCC17978-infected mice (ATCC17978-infected mice; at 36 h): 40%

SMILES: COc1ccc2cc([C@H](C)C(=O)O)ccc2c1 [NPXS, (+)-(S)-2-(6-methoxynaphthalen-2-yl) propanoic acid]
- CD86 MFI levels (M1 polarization) ([1]; F4/80+ macrophages in the lungs of Ab-infected mice): effectively attenuated
- infiltration of CD11b+F4/80+ macrophages ([1]; lungs of Ab-infected mice): did not result in decrease
- extent of body weight loss (ATCC17978-infected mice; 12 hpi, on average, infected untreated 6.7%): 3.6%
- splenomegaly (percentage of spleen weight) (ATCC17978-infected mice; on average, infected untreated 0.48%): 0.38%
- infected mice protected from death (ATCC17978-infected mice; within 120 h, 50 mg/kg i.p. 1 h before infection): 100%
- reduction of serum IL-1b production [2]: more than 50 fold
- reduction of serum IL-6 production [2]: more than 50 fold
- reduction of serum TNF-α production [2]: more than 50 fold
- relative expression of TLR2/Myd88/NF-κB signaling pathway-related genes ([3]; ATCC 17978-infected mice after NPXS treatment): further reduction
- transcript levels of most pro-inflammatory genes ([3]; Ab-infected mice, lungs): significantly lower
- expression of COX1 gene, Log2FC [3, 4]: 0.4194
- expression of COX2 gene, Log2FC [3, 4]: 0.2429

SMILES: O=C(CCN1CCN(Cc2ccccc2)CC1)Nc1nc(-c2ccccc2)cs1 [TJ-M2010-5]
- CD86 MFI levels (RAW264.7 cells): decrease
- CD206 MFI levels (RAW264.7 cells): no difference

SMILES: Cc1ccc(NCCCc2ccccc2)c(N)c1 [JSH-23]
- CD86 MFI levels (RAW264.7 cells): decrease
- CD206 MFI levels (RAW264.7 cells): no difference

SMILES: C[C@@H]1C[C@H]2[C@@H]3CCC4=CC(=O)C=C[C@]4(C)[C@@]3(F)[C@@H](O)C[C@]2(C)[C@@]1(O)C(=O)CO [DXMS, dexamethasone]
- survival rate of ATCC17978-infected mice (ATCC17978-infected mice; at 48 h): 40%
